According to patent EP0880540B1, “17-BETA-CYCLOPROPYL(AMINO/OXY) 4-AZA STEROIDS AS ACTIVE INHIBITORS OF TESTOSTERONE 5-ALPHA-REDUCTASE AND C17-20-LYASE” (Aventis Pharmaceuticals Inc., priority 1996, dated 1997):

What was measured:
[1] = biological target: T1, nude mouse testicular C17,20 lyase (Mus musculus, UniProt P27786); test: Ex vivo inhibition of C17,20 lyase in nude mouse testes after oral dosing; parameters: species or system male athymic nude mice; settings: 4 hours after oral dosing
T1 construct: from tissue; host or cells: testes of male athymic nude mice (Harlan Laboratories), 10,000 x g supernatant of homogenate
T1 sequence (P27786 1-507): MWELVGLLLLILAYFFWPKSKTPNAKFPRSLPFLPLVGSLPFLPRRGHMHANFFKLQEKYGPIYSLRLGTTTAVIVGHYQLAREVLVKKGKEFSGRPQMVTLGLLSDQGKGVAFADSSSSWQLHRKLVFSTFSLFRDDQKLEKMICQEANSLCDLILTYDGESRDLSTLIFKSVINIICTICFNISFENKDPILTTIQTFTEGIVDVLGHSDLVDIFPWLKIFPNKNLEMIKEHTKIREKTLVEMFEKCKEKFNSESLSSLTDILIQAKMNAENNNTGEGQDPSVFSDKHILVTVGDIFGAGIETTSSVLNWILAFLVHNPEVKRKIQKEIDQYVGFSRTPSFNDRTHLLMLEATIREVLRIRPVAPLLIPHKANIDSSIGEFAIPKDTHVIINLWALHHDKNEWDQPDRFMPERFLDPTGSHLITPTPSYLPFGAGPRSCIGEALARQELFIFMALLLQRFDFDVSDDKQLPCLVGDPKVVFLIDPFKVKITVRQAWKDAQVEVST
Description: Ex vivo inhibition of C17,20 lyase: MDL 103,432 was tested for ex vivo inhibition of rat and nude mouse testes lyase. Male Copenhagen rats and male athymic nude mice obtained from Harlan Laboratories, Indianapolis, IN, were divided into groups of 5 to 6 based on weight. Average weight was 100-140 g each for rats and 18-35 g each for the mice. Prior to oral dosing, animals were fasted overnight. Test compound was prepared by micronization in a lecithin vehicle using a glass Teflon® pestle-type homogenizer. The compound was brought to volume using lecithin so as to administer 0.5 mL per 100 g animal. Rats and nude mice were given vehicle only (controls) or vehicle plus test compounds peros. Rats were also given the compound in lecithin or lecithin alone subcutaneously. Each group consisted of 5-6 animals. At a specified time after dosing, the animals were anesthetized with CO2 gas, sacrificed by cervical dislocation, testes were excised, capsules were removed, and the tissue was weighed. […] Assays were terminated, extracted and analyzed as described above except that carrier steroids were 17α-hydroxyprogesterone, androst-4-ene-dione, and testosterone. […] Activity of test compound was expressed as percent inhibition relative to the control and was the mean of each group of treated animals.

Dunning H Tumor = test: Dunning H tumor growth in rats; format: in vivo, male Copenhagen rats; settings: MDL 105831 15 mg/kg/day PO, MDL 15910 50 mg/kg/day PO
From the text: As described in J.T. Isaacs & D.S. Coffey, Cancer Res. 41:5070-5075 (1981); W.J. Ellis & J.T. Issacs, Cancer Res. 45:6041-6050 (1985); T.W. Bedding & A.V. Schally, The Prostate 6:219-232 (1985) and P.E. Juniewicz et al. The Prostate 18:105-115 (1991), male Copenhagen rats were obtained from HARLAN-SPRAGUE-DAWLEY Inc. (Indianapolis, IN), and were individually housed in suspended wire cages and provided laboratory rodent chow (Purina 5001 pellets, Purina Mills, St. Louis, MO) and deionized water ad libum. The rats were anesthetized using sodium pentobarbital and the hair was clipped from the back dorsal area. Tumors from donor Copenhagen rats were cut into fragments of 10 mm^3 and implanted subcutaneously (one site per rat) into the prepared dorsal area.
Animals were selected (105 days post implantation) for the treatment phase based on tumor size. Ten animals were anesthetized with sodium pentobarbital and bilaterally castrated. The remaining animals were assigned to treatment groups (ten per group) based on mean group tumor size. Animals were kept separate throughout the study. The tested compounds were prepared in solution or suspension in a lecithin vehicle (L-α-phosphatidylcholine type XV-E) containing methylparaben and propylparaben. All treatments were performed by oral gavage (per os) at 2 cc/kg each day of study. Tumor size and rat body weights were recorded every seven days over a period of 35 days. Twenty-four hours after the last treatment animals were euthenized by CO2 and the tumors, prostate, seminal vesicles and testes were removed and weighed. In Table 4, average tumor growth is determined from the corrected group means over a 35 day period after treatment was started. […] The animals eliminated from the calculation of the corrected means were in Figure 6, animals 8, 9, 10; in Figure 7, animals 18, 19 and 20; in Figure 8, animals 27, 28, 29 and 30; and in Figure 9, animals 37, 39 and 40. The castrated controls in Figure 10 present a different problem. Here it is believed that the different tumor volumes observed throughout the group is attributable to the different sizes at the beginning of the study. Since the mean variance here is clearly attributable to factors other than the effect of the castration itself, animals 47, 48, 49 and 50 were deleted from the corrected mean. Of these, animal 47 died during the treatment period.
Table 4 indicates the average daily growth rate, measured from the corrected mean tumor size on day 35 and day 0, comparing MDL 105831 and flutamide (MDL 15910), a known androgen receptor antagonist. […]

| Structure (SMILES) | inhibition at 30 mg/kg ([1]; 30 mg/kg) | inhibition at 100 mg/kg ([1]; 100 mg/kg) | Tumor Growth in Dunning H Rat, Day 0 (Dunning H Tumor; Day 0 (baseline), corrected group mean) | Tumor Growth in Dunning H Rat, Day 7 (Dunning H Tumor; Day 7, corrected group mean) | Tumor Growth in Dunning H Rat, Day 16 (Dunning H Tumor; Day 16, corrected group mean) | Tumor Growth in Dunning H Rat, Day 21 (Dunning H Tumor; Day 21, corrected group mean) | Tumor Growth in Dunning H Rat, Day 29 (Dunning H Tumor; Day 29, corrected group mean) | Tumor Growth in Dunning H Rat, Day 35 (Dunning H Tumor; Day 35, corrected group mean) | Δv/Δt (day 35-day 0) (Dunning H Tumor; average daily growth rate from corrected mean tumor size) |
| --- | --- | --- | --- | --- | --- | --- | --- | --- | --- |
| CC12CCC3C(CC[C@H]4NC(=O)CCC34C)C1CC[C@@H]2OC1CC1 (stereo partly drawn) [MDL 103,432, 17β-Cyclopropyloxy-4-aza-5α-androstan-3-one] | 88% | 96% | – | – | – | – | – | – | – |
| C[C@]12CC[C@H]3[C@@H](CC=C4NC(=O)CC[C@@]43C)[C@@H]1CC[C@@H]2NC1CC1 [MDL 105,831, 17β-Cyclopropylamino-4-aza-androst-5-en-3-one] | – | – | 328.40 mm^3 | 389.90 mm^3 | 497.20 mm^3 | 759.40 mm^3 | 1135.80 mm^3 | 1041.60 mm^3 | 20.38 mm^3/day |
